In a compilation of properties of binary mixtures (doi:10.1007/s10953-012-9937-x):

Assay: xn = mol fraction of the nth substance listed
Conditions: 298.15 K, 101 kPa

`CCCCCCCCn1cc[n+](C)c1.F[B-](F)(F)F` + CCCCOC(C)=O showed a viscosity (x2 = 0) of 336 mPa·s, a viscosity (x2 = 0.1989) of 124.4 mPa·s and a viscosity (x2 = 0.3002) of 74.3 mPa·s. It also gave a viscosity (x2 = 0.3991) of 45.91 mPa·s, a viscosity (x2 = 0.502) of 27.13 mPa·s and a viscosity (x2 = 0.5548) of 20.31 mPa·s. For the same compound, the viscosity (x2 = 0.6024) was 15.79 mPa·s, the viscosity (x2 = 0.654) was 11.56 mPa·s and the viscosity (x2 = 0.7075) was 8.27 mPa·s. The viscosity (x2 = 0.8007) was 4.31 mPa·s and the viscosity (x2 = 0.95) was 1.14 mPa·s.

`CCCCCCCCn1cc[n+](C)c1.F[B-](F)(F)F` + CCC(C)=O showed a viscosity (x2 = 0) of 336 mPa·s, a viscosity (x2 = 0.209) of 100.3 mPa·s and a viscosity (x2 = 0.2713) of 69.9 mPa·s. For the same compound, the viscosity (x2 = 0.3991) was 34.24 mPa·s, the viscosity (x2 = 0.5032) was 18.4 mPa·s and the viscosity (x2 = 0.551) was 13.82 mPa·s. For the same compound, the viscosity (x2 = 0.6006) was 10.26 mPa·s, the viscosity (x2 = 0.6442) was 7.54 mPa·s and the viscosity (x2 = 0.9518) was 0.63 mPa·s.

In the case of `CCC(C)=O` + CCCCCCCCn1cc[n+](C)c1.F[B-](F)(F)F, the viscosity (x1 = 1) was 0.39 mPa·s.

With `COC(C)=O` + CCCCCCCCn1cc[n+](C)c1.F[B-](F)(F)F the viscosity (x1 = 1) was 0.39 mPa·s.

`CCOC(C)=O` + CCCCCCCCn1cc[n+](C)c1.F[B-](F)(F)F showed a viscosity (x1 = 1) of 0.44 mPa·s.

In the case of `CCCCCCCCn1cc[n+](C)c1.F[B-](F)(F)F` + COC(C)=O, the viscosity (x2 = 0) was 336 mPa·s, the viscosity (x2 = 0.1173) was 188 mPa·s and the viscosity (x2 = 0.2964) was 70 mPa·s. It also gave a viscosity (x2 = 0.4063) of 34.24 mPa·s, a viscosity (x2 = 0.4511) of 24.78 mPa·s and a viscosity (x2 = 0.4964) of 18.4 mPa·s. The viscosity (x2 = 0.6056) was 10.26 mPa·s, the viscosity (x2 = 0.6519) was 7.54 mPa·s and the viscosity (x2 = 0.7027) was 5.04 mPa·s. The viscosity (x2 = 0.8989) was 1.03 mPa·s.

Work on `CCCCCCCCn1cc[n+](C)c1.F[B-](F)(F)F` + CCCOC(C)=O yielded a viscosity (x2 = 0) of 336 mPa·s, a viscosity (x2 = 0.1006) of 198.9 mPa·s and a viscosity (x2 = 0.197) of 121.1 mPa·s. For the same compound, the viscosity (x2 = 0.2972) was 75.8 mPa·s, the viscosity (x2 = 0.4992) was 25.67 mPa·s and the viscosity (x2 = 0.6013) was 14.19 mPa·s. The viscosity (x2 = 0.6504) was 10.55 mPa·s, the viscosity (x2 = 0.7065) was 7.48 mPa·s and the viscosity (x2 = 0.7992) was 3.75 mPa·s. It also gave a viscosity (x2 = 0.9043) of 1.51 mPa·s and a viscosity (x2 = 0.9529) of 0.91 mPa·s.

In the case of `CCCOC(C)=O` + CCCCCCCCn1cc[n+](C)c1.F[B-](F)(F)F, the viscosity (x1 = 1) was 0.56 mPa·s.

With `CCCCCCCCn1cc[n+](C)c1.F[B-](F)(F)F` + CCOC(C)=O the viscosity (x2 = 0) was 336 mPa·s, the viscosity (x2 = 0.1092) was 181 mPa·s and the viscosity (x2 = 0.2953) was 69.8 mPa·s. For the same compound, the viscosity (x2 = 0.4999) was 23.13 mPa·s, the viscosity (x2 = 0.5507) was 17.01 mPa·s and the viscosity (x2 = 0.7012) was 6.56 mPa·s. For the same compound, the viscosity (x2 = 0.9005) was 1.284 mPa·s.
